Source: the supplement of paper PMC5412046
Where a name gives a salt, the structure may show the parent alone.

Legend:
[1] = system: SB.msgc-1; assay: AC50 for growth inhibition (viability) (log10 M); higher = less potent; settings: SB.msgc-1 (sporadic gastric cancer)
Method in brief: (§1)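 In 1536-well plates, each well held 500 patient-derived gastric cancer cells (hereditary or sporadic) in 5 μL medium. Compound in DMSO, 23 nL per well, was pinned in 11 threefold dilutions starting at a final 46 μM. Following 48 h of exposure, cells had CellTiter-Glo for 30 min at room temperature before ViewLux luminescence reading. Only high-quality curve classes from four-parameter fits of DMSO-normalised viability gave the log half-maximal activity concentration.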

[2] = system: SB.mhdgc-1; assay: as above; settings: SB.mhdgc-1 (hereditary c.1380delA CDH1 gastric cancer)
Method in brief: as §1

| SMILES | AC50 for growth inhibition (log10 M) [1] | AC50 for growth inhibition (log10 M) [2] |
| --- | --- | --- |
| CC[S+](=O)([O-])Nc1ccc2c(c1)/C(=C(/Nc1ccc(CN3CCCCC3)cc1)c1ccccc1)C(=O)N2 [Hesperadin] | -5.23 | -5.18 |
| CC(C)=CCC/C(C)=C/CC/C(C)=C/CSc1ccccc1C(=O)O [Salirasib] | -5.58 | -6.43 |
| C[C@@H]1C[C@@H]([C@H](O)CC2CC(=O)NC(=O)C2)C(=O)[C@@H](C)C1 [cycloheximide] | -6.53 | -6.73 |
| Cc1cn(-c2cc(NC(=O)c3ccc(C)c(Nc4nccc(-c5cccnc5)n4)c3)cc(C(F)(F)F)c2)cn1 [Nilotinib] | -4.83 | -5.18 |
| CN1CCC(CNc2ccc3ncc(-c4cccc(OC(F)(F)F)c4)n3n2)CC1 [SGI-1776] | -4.83 | -5.03 |
| N#Cc1ccc(COC[C@H]2O[C@@H](n3c(NCc4ccc(Cl)c(Cl)c4)nc4c(N)ncnc43)[C@H](O)[C@@H]2O)cc1 | -5.08 | -4.93 |
| COc1cc(C)c(Sc2cnc(NC(=O)c3ccc(CNC(C)C(C)C)cc3)s2)cc1C(=O)N1CCN(C(C)=O)CC1 (stereo not given) [ITK inhibitor] | -4.73 | -4.78 |
| CC(C)(F)C[C@H](N[C@@H](c1ccc(-c2ccc([S+](C)(=O)[O-])cc2)cc1)C(F)(F)F)C(=O)NC1(C#N)CC1 [Odanacatib] | -4.88 | -5.38 |
| COc1cc2ncnc(Nc3ccc(F)c(Cl)c3)c2cc1OCCCN1CCOCC1 [Gefitinib] | -6.67 | -5.57 |
| CC(C)CNc1ccnc(NCc2csc(-c3ccccc3)n2)n1 [KHS101] | -4.78 | -4.78 |
| Cn1c2ccccc2c2c3c(c4c5ccccc5n(CCC#N)c4c21)CNC3=O [G?-6976] | -5.23 | -5.08 |
| CCn1c(-c2nonc2N)nc2cnc(Oc3cccc(NC(=O)c4ccc(OCCN5CCOCC5)cc4)c3)cc21 | -5.18 | -4.98 |
| COc1cc2nc(N3CCCN(C)CC3)nc(NC3CCN(Cc4ccccc4)CC3)c2cc1OC | -4.88 | -5.28 |
| COc1cc2c(cc1-c1c(C)noc1C)ncc1[nH]c(=O)n([C@H](C)c3ccccn3)c12 [I-BET151] | -5.28 | -4.93 |
| COc1ccc2c(c[n+](C)c3c4cc5c(cc4ccc23)OCO5)c1OC [Chelerythrine chloride] | -5.03 | -5.08 |
| Cc1c(CCOc2ccc(C(=O)O)cc2)c2cc(Cl)ccc2n1C(c1ccccc1)c1ccccc1 [CDIBA] | -4.98 | -4.73 |
| COc1ccc(C[C@@H](C)[C@@H](C)Cc2ccc(OC)c(OC)c2)cc1OC [Terameprocol] | -5.43 | -5.18 |
| CCCCN(CCCC)CCC(O)c1cc2c(Cl)cc(Cl)cc2c2cc(C(F)(F)F)ccc12 (stereo not given) [Halofantrine] | -4.73 | -4.68 |
| NC1=NC=C(C=C1)C2=CC=C3N=CC\4=C(N(C(=O)\C=C4)C5=CC(=CC=C5)C(F)(F)F)C3=C2 [Torin-2] | -6.78 | -6.48 |
| CC(C)NCC(O)c1ccc(NS(C)(=O)=O)cc1 (stereo not given) [Sotalol] | -5.03 | -4.83 |

| SMILES | AC50 for growth inhibition (log10 M) [1] | AC50 for growth inhibition (log10 M) [2] |
| --- | --- | --- |
| CC(C)C[C@H](NC(=O)[C@@H](NC(=O)c1cccc(-c2ccccc2)n1)[C@@H](C)O)B(O)O [Delanzomib] | -7.43 | -7.38 |
| NC/1=N/C2=C([NH]C=N2)C(=S)N1 [Tioguanine] | -5.58 | -5.03 |
| C\C1=C\N([C@H]2C[C@H](N=[N+]=[N-])[C@@H](CO)O2)C(=O)NC1=O [Zidovudine] | -4.58 | -5.03 |
| Cc1nc(NC(=O)N2CCC[C@H]2C(N)=O)sc1-c1csc(C(C)(C)C)n1 [A-66] | -6.53 | -5.38 |
| NC/1=N/C(=O)C2=C([NH]C=C2CCC3=CC=C(C=C3)C(=O)N[C@@H](CCC(O)=O)C(O)=O)N1 [Pemetrexed disodium] | -6.23 | -6.33 |
| COC1=CC=C2[N](CCCN(C)C)C=C(C2=C1)C/3=C(/C(=O)NC3=O)C4=C[NH]C5=C4C=CC=C5 [G?-6983] | -4.58 | -6.78 |
| COc1cc2ncn(-c3cc(OCc4ccccc4C(F)(F)F)c(C(N)=O)s3)c2cc1OC | -5.63 | -5.43 |
| Cc1c(Cn2c(C)nc3c(C(=O)O)cc(N4CCOCC4)cc32)cccc1C(F)(F)F | -5.88 | -7.48 |
| CC1=CC2=C(O1)C(=C3OC(=O)\C=C(C)/C3=C2)C [Trioxsalen] | -4.93 | -5.38 |
| Cc1c[nH]c(/C=C2\C(=O)Nc3ccccc32)c1CCC(=O)O [SU-5402] | -4.73 | -4.68 |
| Cc1ccc2nc(NCCN)c3ncc(C)n3c2c1 | -5.18 | -6.18 |
| CCOC(=O)N1c2ccc(C(F)(F)F)cc2[C@@H](N(Cc2cc(C(F)(F)F)cc(C(F)(F)F)c2)C(=O)OC)C[C@H]1CC [Torcetrapib] | -5.18 | -4.73 |
| CN1CCN(c2cc(C(=O)Nc3ccc4c(c3)-c3c(c(C(N)=O)nn3-c3ccc(F)cc3)CC4)c(Cl)cn2)CC1 [PHA-408] | -5.93 | -5.88 |
| FC(F)c1nc2ccccc2n1-c1nc(N2CCOCC2)nc(N2CCOCC2)n1 [ZSTK-474] | -5.98 | -6.48 |
| CCN(CC)Cc1ccc2cc(COC(=O)Nc3ccc(C(=O)NO)cc3)ccc2c1 [Givinostat hydrochloride] | -6.03 | -5.38 |
| N=c1c2c(-c3ccccc3)c(-c3ccccc3)n(Cc3ccccc3)c2ncn1[C@H]1CC[C@H](O)CC1 | -4.73 | -4.58 |
| Nc1nc(N)c(N=O)c(OCC2CCCCC2)n1 [NU-6027] | -4.73 | -5.33 |
| COC(=O)/C=C/C(=O)OC [Dimethyl fumarate] | -5.48 | -5.68 |
| COc1cc2ncnc(-n3nc(-c4ccccn4)nc3N)c2cc1OC | -4.78 | -5.03 |
| C[N]1C=C(C=N1)C2=C3\C=N/NC(=O)C4=C3C(=CC(=C4)NC(=O)[C@H](N)C5CCCCC5)[NH]2 | -5.63 | -6.08 |
